From patent US9260417B2, “Therapeutic methods and compositions involving allosteric kinase inhibition” (AMITECH THERAPEUTIC SOLUTIONS, INC., priority 2010, dated 2016)

Assays:
[1] = system: NCI60 panel; assay: NCI60 panel growth inhibition; type: cell-based; conditions: average across NCI60 panel; read-out: average growth inhibitory concentration (GI50)
[2] = molecular target: p38-alpha (Homo sapiens (Human), UniProt Q16539); assay: KINOMEscan competitive binding assay; conditions: 10 uM
Description: For the competitive binding assay, test compounds were screened at 10 μM against 70 diverse kinase targets for competitive binding using the KINOMEscan™ technology (Ambit Biosciences) (Karaman, et al. (2008) Nature biotechnology 26:127-132). 11-point Kd curves were determined for hits identified during the initial screen.

[3] = molecular target: DYRK1B (Homo sapiens (Human), UniProt Q9Y463); assay: KINOMEscan competitive binding assay; conditions: 10 uM
[4] = system: SN12C-RFP renal cells; assay: Orthotopic renal cell carcinoma model; type: in vivo, mice; conditions: 100 mg/kg, po, qd; day 26 (vehicle 132±39 mg)
From the text: (FIG. 10A) Real-time fluorescent imaging of SN12C-RFP renal cells orthotopically injected into […] of nu/nu mice. […] Drug treatments were started 7 days after orthotopic injection and tumor growth was visualized every 7 days by whole animal imaging. The images shown are of 4 mice in the vehicle and drug treated groups on day 26. Scale bar=10 mm. (FIG. 10B) At the end of the study, both the left tumor bearing kidney and right kidney were extracted and weighed.
Male Nu/Nu mice were anesthetized with an intraperitoneal injection of 50 mg/kg ketamine and […] medetomidine. A small incision was made along the left flank of the mice and the kidney was exposed. A 27-gauge insulin syringe was used for orthotopic injection of the SN12C-RFP cells. One million tumor cells in 20 μl of a 1:1 PBS:Matrigel mixture were injected into the lower pole of the kidney just below the renal subcapsule. […]
To test the effects of 6 on tumor growth after oral administration, human SN12C renal cells expressing RFP were injected into the kidney capsule of nude mice and tumors were allowed to develop for 7 days. […] Suppression of tumor growth was readily observed in those animals treated with 6 (FIG. 10A). On day 26, the kidneys were excised from these animals and the weight due to tumor was calculated by subtracting the weight of the normal kidney from the weight of the tumor-bearing kidney for each animal.

DYRK1B, sequence (Q9Y463 whole entry): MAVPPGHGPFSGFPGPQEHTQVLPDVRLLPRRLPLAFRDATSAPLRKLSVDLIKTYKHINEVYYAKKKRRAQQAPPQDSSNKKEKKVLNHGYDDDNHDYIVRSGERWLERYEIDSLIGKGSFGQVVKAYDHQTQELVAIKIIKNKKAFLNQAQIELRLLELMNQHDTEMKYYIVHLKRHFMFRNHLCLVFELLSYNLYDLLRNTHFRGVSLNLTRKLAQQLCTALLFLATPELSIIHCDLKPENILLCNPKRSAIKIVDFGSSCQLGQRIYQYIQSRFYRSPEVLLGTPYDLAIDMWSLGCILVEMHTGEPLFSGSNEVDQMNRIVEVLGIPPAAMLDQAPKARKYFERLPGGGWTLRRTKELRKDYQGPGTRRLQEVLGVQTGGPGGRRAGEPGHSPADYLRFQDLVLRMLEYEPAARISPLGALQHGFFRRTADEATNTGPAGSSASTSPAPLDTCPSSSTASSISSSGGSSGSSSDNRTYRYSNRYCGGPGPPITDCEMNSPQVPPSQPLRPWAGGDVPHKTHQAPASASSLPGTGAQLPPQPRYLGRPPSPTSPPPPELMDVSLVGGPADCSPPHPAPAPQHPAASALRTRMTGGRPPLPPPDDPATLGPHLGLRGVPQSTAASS
p38-alpha, sequence (Q16539 whole entry): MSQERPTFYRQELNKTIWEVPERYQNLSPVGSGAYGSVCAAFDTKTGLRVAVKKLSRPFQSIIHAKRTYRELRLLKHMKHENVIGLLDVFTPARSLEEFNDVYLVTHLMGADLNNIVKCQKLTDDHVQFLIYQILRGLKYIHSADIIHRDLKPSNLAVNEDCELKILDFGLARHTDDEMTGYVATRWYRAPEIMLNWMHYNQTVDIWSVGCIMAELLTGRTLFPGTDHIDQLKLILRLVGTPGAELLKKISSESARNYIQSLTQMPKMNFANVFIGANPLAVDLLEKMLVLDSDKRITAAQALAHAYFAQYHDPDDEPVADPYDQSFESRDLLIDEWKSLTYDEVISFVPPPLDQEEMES

SMILES: CSc1nc(N)cc(Oc2ccc(-c3nnc(Nc4cccc(C(F)(F)F)c4)[nH]3)cc2)n1 [Compound 6]
- GI50 [1]: 490 nM
- % Control [2]: 100%
- % Control [3]: 85%
- average tumor burden (tumor-bearing kidney minus normal kidney weight) [4]: 49 ± 18 mg
